Experimental data published in ChEMBL document CHEMBL1139741, “Synthesis of 1,2,4-trioxepanes via application of thiol-olefin co-oxygenation methodology” (Bioorg Med Chem Lett, 2006).
pIC50: −log10 of the molar value.

tested on: Plasmodium falciparum; assay: Antimalarial activity against Plasmodium falciparum 3D7; format: functional, organism-based

How did the pIC50 turn out when `CC1(CS(=O)(=O)c2ccc(Cl)cc2)COC2(CCCC2)OO1` (stereo not drawn) was run?
Its pIC50 is 7.00.

`CC1(CS(=O)(=O)c2ccc(Cl)cc2)COC2(CCCCC2)OO1` (stereo not drawn) was tested. Which pIC50 did it give?
Its pIC50 is 6.86.

`CC1(CS(=O)(=O)c2ccc(Cl)cc2)CCOC(=C2C3CC4CC(C3)CC2C4)OO1` (stereo not drawn) was tested. Which pIC50 did it give?
Its pIC50 is under 6.00.

`CC1(CS(=O)(=O)c2ccc(Cl)cc2)CCOC2(CCCCC2)OO1` (stereo not drawn) was tested. Which pIC50 did it give?
The pIC50 was under 6.00.

With `CC1(CS(=O)(=O)c2ccc(Cl)cc2)COC(=C2C3CC4CC(C3)CC2C4)OO1` (stereo not drawn) as the molecule, how does the pIC50 read?
Its pIC50 is 6.72.

How did the pIC50 turn out when `CC1(CS(=O)(=O)c2ccc(Cl)cc2)CCOC2(CCCC2)OO1` (stereo not drawn) was run?
The pIC50 was under 6.00.

`CC1(CSc2ccc(Cl)cc2)COC2(CCCC2)OO1` (stereo not drawn) was tested. Which pIC50 did it give?
Its pIC50 is 6.96.

With `COC(=O)/C=C/C1(C)CCOC(=C2C3CC4CC(C3)CC2C4)OO1` (stereo not drawn) as the molecule, how does the pIC50 read?
Its pIC50 is under 6.00.
